Results from patent US11691989B2, “Macrocyclic indoles as Mcl-1 inhibitors” (ASCENTAGE PHARMA (SUZHOU) CO., LTD., priority 2018, dated 2023).

Experiments:
[1] = target: Mcl-1 protein (residues 171-323) (Homo sapiens (Human), UniProt Q07820); experiment: Inhibition of Mcl-1 by fluorescence polarization (FP) competitive binding assay with FAM-Bid tracer; conditions: 2 nM FAM-Bid, 20 nM Mcl-1, 30 min, read-out: Mc1-1 (FP)
Procedure: Inhibition of Mcl-1 by fluorescence polarization (FP) assay.
The method used a fluorescein labelled peptide (FAM-Bid) which binds to the Mcl-1 protein leading to an increased anisotropy measured in milli-polarization (mP) values using a plate reader.
A 10-points serial dilution of each compound was prepared in DMSO and 5 μL solution was transferred into flat bottomed, 96-well back plate (final DMSO concentration 5%). 120 μL of Buffer (PBS, 0.01% BGG (Sigma Cat. #SRE0011), 0.01% Triton X-100), containing the Fluorescein labelled peptide (Final concentration 2 nM) and Mcl-1 protein (final concentration 20 nM) was then added. […] 10-points dose response curves were plotted with GraphPad software using Sigmoidal Dose-Response Model and the IC50 values were determined by nonlinear regression fitting of the competition curves.

NCI-H929 cells = experiment: Cell viability assay (NCI-H929 cells), CCK-8; format: cell-based; conditions: Homo sapiens, NCI-H929, 24 h, 5% FBS
Procedure: Cell Viability Assay (NCI-H929 cells)
NCI-H929 cells were obtained from American Type Culture Collection (ATCC). Cells were maintained in the recommended culture medium (RPMI 1640) with 10% FBS and 0.05 mM BME at 37° C. and an atmosphere of 5% CO2.
The effect of Compounds on cell viability was determined using Cell Counting Kit-8 (CCK-8) assay according to the manufacturer's instructions. 95 μL of NCI-H929 cell suspension (20000 cells/well) in culture medium were seeded into 96-well plates and cultured 4 hrs. Each tested compound was serially diluted in DMSO, then 5 μL of the compound or DMSO was diluted in 95 μL medium once more. At last, 5 μL of the compound dilution was added to the corresponding well of the cell plate. After the addition of the tested compound, the cells were incubated at 37° C. in an atmosphere of 5% CO2 for 24 hrs. At the end, 10 μL of CCK-8 solution was added to each well of the plate and incubated for 1-4 hours. The plates were read at 450 nm on the microplate reader (BioTek Synergy 1MF). The readings were normalized to the vehicle cells, and the IC50 was calculated by nonlinear regression analysis using GraphPad Prism 6 software.

OPM-2 cells = experiment: Cell viability assay (OPM-2 cells), CCK-8; format: cell-based; conditions: Homo sapiens, OPM-2, 24 h, 5% FBS
Procedure: Cell Viability Assay (OPM-2 cells)
OPM-2 cells were obtained from Deutsche Sammlung von Mikroorganismen and Zellkulturen GmbH (DSMZ). Cells were maintained in the recommended culture medium with 10% FBS at 37° C. and an atmosphere of 5% CO2.
The effect of representative Compounds of the Disclosure on cell viability was determined using Cell Counting Kit-8 (CCK-8) assay (Shanghai Life iLab Bio Technology) according to the manufacturer's instructions. Each tested compound was serially diluted in culture medium, 100 μL of the compound dilution was added into 96-well plates. 100 μL of an OPM-2 cell suspension (20000 cells/well) in culture medium were seeded into the corresponding well of the plate and the cells were incubated at 37° C. in an atmosphere of 5% CO2 for 24 hours. In the next day, 20 μL of CCK-8 solution was added to each well of the plate and incubated for 4 hours.
The plates were read at 450 nm on the microplate spectrophotometer (SpectraMax plus 384, Molecular devices). The readings were normalized to the vehicle cells, and the IC50 was calculated by nonlinear regression analysis using GraphPad Prism 6 software.

Sequence of Mcl-1 protein (residues 171-323) (Q07820 171-323): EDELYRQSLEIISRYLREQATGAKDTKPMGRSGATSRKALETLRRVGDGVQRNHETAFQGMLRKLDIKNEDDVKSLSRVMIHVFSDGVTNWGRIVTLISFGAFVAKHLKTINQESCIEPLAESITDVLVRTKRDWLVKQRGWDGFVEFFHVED

IC50 [1] [µM] | IC50 (NCI-H929 cells) [µM] | Structure (SMILES) | IC50 (OPM-2 cells) [µM]
0.01 | 0.444 | Cc1c2c(nn1C)CSCc1cc(n(C)n1)CSc1cc(c3ccc(F)cc3c1)OCCCn1c(C(=O)O)c(F)c3c-2c(Cl)ccc31 [Cpd. No. 19, (Z)-1^5-chloro-1^3,9^6-difluoro-2^1,2^5,6^1-trimethyl-1^1H,2^1H,6^1H-10-oxa-4,8-dithia-1(4,1)-indola-2(4,3),6(3,5)-dipyrazola-9(3,1)-naphthalenacyclotridecaphane-1^2-carboxylic acid] | 0.449
0.017 | 0.198 | Cc1c(C(=O)O)n2c3ccc(Cl)c(c13)-c1c(nn(C)c1C)CN(S(=O)(=O)c1cccnc1)Cc1cc(n(C)n1)CSc1cc(c3ccc(F)cc3c1)OCCC2 [Cpd. No. 41, (Z)-1^5-chloro-9^6-fluoro-1^3,2^1,2^5,6^1-tetramethyl-4-(pyridin-3-ylsulfonyl)-1^1H,2^1H,6^1H-10-oxa-8-thia-4-aza-1 (4,1)-indola-2(4,3),6(3,5)-dipyrazola-9(3,1)-naphthalenacyclotridecaphane-1^2-carboxylic acid] | 0.275
0.022 | 0.613 | Cc1c(C(=O)O)n2c3ccc(Cl)c(c13)-c1c(nn(C)c1C)CN(C(=O)c1ncco1)Cc1cc(n(C)n1)CSc1cc(c3ccc(F)cc3c1)OCCC2 [Cpd. No. 43, (Z)-1^5-chloro-9^6-fluoro-1^3,2^1,2^5,6^1-tetramethyl-4-(oxazole-2-carbonyl)-1^1H,2^1H,6^1H-10-oxa-8-thia-4-aza-1(4,1)-indola-2(4,3),6(3,5)-dipyrazola-9(3,1)-naphthalenacyclotridecaphane-1^2-carboxylic acid] | 1.25
0.004 | 1.85 | CNC(=O)Cn1nc2c(c1C)-c1c(Cl)ccc3c1c(C)c(C(=O)O)n3CCCOc1cc(cc3ccccc13)SCc1cc(nn1C)CSC2 [Cpd. No. 10, (Z)-1^5-chloro-1^3,2^5,6^1-trimethyl-2^1-(2-(methylamino)-2-oxoethyl)-1^1H,2^1H,6^1H-10-oxa-4,8-dithia-1(4,1)-indola-2(4,3),6(3,5)-dipyrazola-9(3,1)-naphthalenacyclotridecaphane-1^2-carboxylic acid] | 4.11
0.007 | 0.27 | CNS(=O)(=O)N1Cc2cc(n(C)n2)CSc2cc(c3ccc(F)cc3c2)OCCCn2c(C(=O)O)c(C)c3c(c(Cl)ccc32)-c2c(nn(C)c2C)C1 [Cpd. No. 38, (Z)-1^5-chloro-9^6-fluoro-1^3,2^1,2^5,6^1-tetramethyl-4-(N-methylsulfamoyl)-1^1H,2^1H,6^1H-10-oxa-8-thia-4-aza-1 (4,1)-indola-2(4,3),6(3,5)-dipyrazola-9(3,1)-naphthalenacyclotridecaphane-1^2-carboxylic acid] | 0.543
0.022 | 0.768 | Cc1c(C(=O)O)n2c3ccc(Cl)c(c13)-c1c(nn(C)c1C)CN(C(=O)c1ccccn1)Cc1cc(n(C)n1)CSc1cc(c3ccc(F)cc3c1)OCCC2 [Cpd. No. 42, (Z)-1^5-chloro-9^6-fluoro-1^3,2^1,2^5,6^1-tetramethyl-4-picolinoyl-1^1H,2^1H,6^1H-10-oxa-8-thia-4-aza-1 (4,1)-indola-2(4,3),6(3,5)-dipyrazola-9(3,1)-naphthalenacyclotridecaphane-1^2-carboxylic acid] | 1.51
 | 0.18 | Cc1c2c(nn1C)CSCc1cc(n(C)n1)CSc1cc(c3ccc(F)cc3c1)OCCCn1c(C(=O)O)cc3c-2c(Cl)ccc31 [Cpd. No. 13, (Z)-1^5-chloro-9^6-fluoro-2^1,2^5,6^1-trimethyl-1^1H,2^1H,6^1E-10-oxa-4,8-dithia-1(4,1)-indola-2(4,3),6(3,5)-dipyrazola-9(3,1)-naphthalenacyclotridecaphane-1^2-carboxylic acid] | 0.649
